Patent publication US9952206B2, “Immunoassay for detecting kratom, its constituents and their use” (Randox Laboratories Limited, priority 2013, dated 2018)
Values after ≈ are worked out from the molar mass of the structure shown.

Tested on: antibodies of the invention (antisera generated in response to the immunogen of Example 4)
Experiment: Competitive chemiluminescent biochip immunoassay, standard curve generation using generated antiserum
Details: for IC50 (standard concentration which produces 50% B/B0): biochip-immobilised IgG fraction of antiserum, hapten-HRP conjugate of Example 5; for % CR (percentage cross-reactivity based on 100% specificity to mitragynine): relative to mitragynine = 100%

Row | SMILES | IC50 (standard concentration which produces 50% B/B0) [ng/mL] | B/Bo (calibrator 0.313 ng/ml) [%] | B/Bo (calibrator 0.625 ng/ml) [%] | B/Bo (calibrator 1.250 ng/ml) [%] | B/Bo (calibrator 2.500 ng/ml) [%] | B/Bo (calibrator 5.000 ng/ml) [%] | B/Bo (calibrator 10.000 ng/ml) [%] | B/Bo (calibrator 20.000 ng/ml) [%] | % CR (percentage cross-reactivity based on 100% specificity to mitragynine) [%]
1 | CCC1CN2CCc3c([nH]c4cccc(O)c34)C2CC1C(=COC)C(=O)OC [8-Desmethylmitragynine, (E)-2-[(2S,3S,12bS)-3-ethyl-8-hydroxy-1,2,3,4,6,7,12,12b-octahydroindolo[2,3-a]quinozilizin-2-yl]-3-methoxy propenoic acid methyl ester] | 1.532 (≈ 3.98 nM) | 74 | 63 | 54 | 42 | 29 | 18 | 13 | 77.87
2 | CC[C@@H]1CN2CCc3c([nH]c4cccc(OC)c34)[C@H]2C[C@@H]1/C(=C\OC)C(=O)OC (stereo in doubt) [Mitragynine, (E)-2-[(2S,3S,12bS)-3-ethyl-8-methoxy-1,2,3,4,6,7,12,12b-octahydroindolo[2,3-a]quinozilizin-2-yl]-3-methoxy propenoic acid methyl ester] | 1.193 (≈ 2.99 nM) | 75 | 63 | 49 | 37 | 25 | 17 | 11 | 100.00
